Laboratory results reported in PMC7438908, “Antimicrobial Peptide Reverses ABCB1-Mediated Chemotherapeutic Drug Resistance” (Frontiers in Pharmacology, 2020).
“Also recorded” adds a separate entry of the source. Read-outs that look alike come from different tables or passages of the source. Where no end group is shown, it is not given here.

Experiments:
KB-3-1 cells [1] = assay: MTT reversal assay, parental KB-3-1; format: cell-based, human; conditions: no modulator, mean ± SD of at least three independent experiments in triplicate, read-out: IC50 of anticancer drug alone
Description: (§1) Therefore, we used KB-C2 and its parental cell line KB-3-1 in this study. […] All the cell lines were cultured in DMEM containing 1% penicillin/streptomycin and 10% FBS at 37°C with 5% CO2. All drug-resistant cell lines were cultured in drug-free medium for more than 2 weeks prior to their use.
(§2) Briefly, 5×10^3 cells per well were evenly seeded in 96-well microplates overnight. For the cytotoxicity assay, peptides and positive control of known substrate anticancer drugs were added in a designated concentration gradient. For the reversal assay, peptides and positive control agents were added 2 h before the addition of anticancer drugs within the specified concentration gradient. The plates were incubated in a culture condition for 68 h followed by the addition of 20 μL MTT solution (4 mg/mL) and further incubation of 4 h. After aspirating the culture medium and MTT solution, the formazan crystals were dissolved with 100 μL DMSO. The absorbance was determined at 570 nm with the accuSkan GO UV/Vis Microplate Spectrophotometer (Fisher Sci., Fair Lawn, NJ).

HEK293/pcDNA3.1 cells = assay: MTT reversal assay, HEK293/pcDNA3.1; format: cell-based; conditions: no modulator, mean ± SD of at least three independent experiments in triplicate, read-out: IC50 of anticancer drug alone
Description: as §1, §2

[2] = test system: KB-C2 cells (ABCB1-overexpressing); assay: MTT reversal assay, drug-selected ABCB1-overexpressing KB-C2; format: cell-based, human
Description: as §1, §2

HEK293/ABCB1 cells = assay: MTT reversal assay, transfected HEK293/ABCB1; format: cell-based; conditions: HEK293/ABCB1, read-out: IC50 of anticancer drug alone
ABCB1 in KB-C2 cells [3] = assay: [3H]-paclitaxel accumulation, KB-C2; format: cell-based, human; conditions: KB-C2 vs KB-3-1; after 2 hours of incubation; no inhibitor
Description: (§3) Drug accumulation and efflux assays were performed as previously described ([Fan et al., 2018]). For the drug accumulation assay, KB-C2 and KB-3-1 cells were seeded at 1×10^4 cells per well into 24-well plates and incubated at 37°C overnight. After cells were incubated in the presence or absence of peptide HX-12C and positive reversal agent for 72 h, the medium was replaced by medium containing 5 μM [^3H]-paclitaxel with peptide HX-12C or positive reversal agent. The drug medium was discarded after 2 h incubation, then cells were washed three times with ice-cold PBS and transferred to the scintillation fluid. The drug efflux assay was performed after discarding the drug medium, then cells were washed three times with ice-cold PBS and treated with the medium containing peptide HX-12C or positive reversal agent. There were three different time points (30, 60, and 120 min) at which after changing the medium, the cells were washed three times with ice-cold PBS and collected and transferred to the scintillation fluid. The Packard TRI-CARB1 190`A liquid scintillation analyzer was used to measure radioactivity. A parallel well of cells for each group was set up for cell number counting at the end of assay for the purpose of data normalization.

ABCB1 in KB-C2 cells [4] = assay: [3H]-paclitaxel efflux, KB-C2; format: cell-based, human; conditions: without inhibitor treatment, 2 h
Description: as §3

KB-3-1 cells [5] = assay: MTT cytotoxicity of peptides, parental KB-3-1; format: cell-based, human; conditions: KB-3-1 parental; modified MTT, 68 h + 4 h MTT, 570 nm; three independent experiments
Description: as §1, §2

ABCB1 = target: T1, ABCB1 (Homo sapiens, UniProt P08183); assay: ABCB1 ATPase assay (vanadate-sensitive); format: biochemical; conditions: insect cell membrane vesicles
T1 construct: purchased BD Biosciences, San Jose, CA, USA; host or cells: High Five insect cells (membrane vesicles)
Description: The ABCB1 ATPase activity was measured based on vanadate-sensitive principle as previously described ([Zhang et al., 2016]). The High Five insect cells membrane vesicles (BD Biosciences, San Jose, CA, USA) were first incubated for 5 min in ATPase assay buffer at 37°C with or without 0.3 mM vanadate. Then peptide HX-12C at a concentration of 0 to 40 μM was adding to the assay buffer and incubated at 37°C for 3 min. After adding 5 mM Mg-ATP with a total volume of 0.1 mL, the ATPase reaction was initiated until stopped by adding 100 μL 5% SDS solution after incubation at 37°C for 20 min. The amount of inorganic phosphate (IP) was used to calculate the ATPase activity of ABCB1, detected at 800 nm using a spectrophotometer.

T1 sequence (P08183 whole entry): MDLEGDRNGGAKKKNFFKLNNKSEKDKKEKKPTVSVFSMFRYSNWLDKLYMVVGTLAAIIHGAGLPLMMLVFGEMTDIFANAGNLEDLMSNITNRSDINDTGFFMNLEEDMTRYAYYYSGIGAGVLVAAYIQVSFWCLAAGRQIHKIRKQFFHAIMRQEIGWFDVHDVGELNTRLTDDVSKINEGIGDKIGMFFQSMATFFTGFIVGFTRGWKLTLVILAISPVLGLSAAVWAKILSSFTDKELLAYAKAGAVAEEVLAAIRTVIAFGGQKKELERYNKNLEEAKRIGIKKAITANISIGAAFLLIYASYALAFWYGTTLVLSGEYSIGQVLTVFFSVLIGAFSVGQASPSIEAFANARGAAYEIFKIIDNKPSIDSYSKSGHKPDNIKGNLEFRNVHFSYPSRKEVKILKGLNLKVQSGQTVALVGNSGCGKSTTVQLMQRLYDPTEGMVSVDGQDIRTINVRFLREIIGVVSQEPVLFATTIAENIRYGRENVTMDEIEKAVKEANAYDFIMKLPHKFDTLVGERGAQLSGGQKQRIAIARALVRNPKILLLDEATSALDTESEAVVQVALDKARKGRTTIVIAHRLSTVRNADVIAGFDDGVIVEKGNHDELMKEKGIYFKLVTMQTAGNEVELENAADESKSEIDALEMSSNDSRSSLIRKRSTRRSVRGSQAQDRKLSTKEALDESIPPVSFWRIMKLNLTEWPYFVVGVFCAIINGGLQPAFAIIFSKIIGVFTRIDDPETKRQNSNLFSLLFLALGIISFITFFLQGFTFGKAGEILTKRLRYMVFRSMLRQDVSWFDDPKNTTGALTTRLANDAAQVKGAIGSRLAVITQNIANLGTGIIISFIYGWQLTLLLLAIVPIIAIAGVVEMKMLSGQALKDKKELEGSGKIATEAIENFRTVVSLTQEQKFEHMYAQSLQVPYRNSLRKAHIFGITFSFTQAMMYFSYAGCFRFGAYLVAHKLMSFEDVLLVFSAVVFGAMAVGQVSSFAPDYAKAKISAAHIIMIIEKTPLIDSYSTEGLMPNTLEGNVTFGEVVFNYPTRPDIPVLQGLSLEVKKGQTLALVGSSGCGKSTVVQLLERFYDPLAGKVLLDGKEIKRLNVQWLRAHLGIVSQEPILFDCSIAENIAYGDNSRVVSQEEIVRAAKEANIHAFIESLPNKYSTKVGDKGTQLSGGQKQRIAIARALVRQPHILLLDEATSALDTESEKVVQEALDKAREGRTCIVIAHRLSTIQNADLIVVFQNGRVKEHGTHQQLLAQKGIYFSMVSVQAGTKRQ

Q: Which results are given for `N.N.[Cl][Pt][Cl]` [Cisplatin, cisplatin]?
A: IC50 (KB-3-1 cells [1]): 1.79 ± 0.476 µM; IC50 (HEK293/pcDNA3.1 cells): 2.21 ± 0.541 µM

Q: Which results are given for `COc1cccc2c1C(=O)c1c(O)c3c(c(O)c1C2=O)C[C@@](O)(C(=O)CO)C[C@@H]3O[C@H]1C[C@H](N)[C@H](O)[C@H](C)O1` [Doxorubicin, doxorubicin]?
A: IC50 (KB-3-1 cells [1]; Homo sapiens): 1.19 ± 0.279 µM; IC50 in ABCB1-overexpressing cells compared with parental cells [2]: significantly higher than those of their parental cells; IC50 ([2]; Homo sapiens, KB-C2, read-out: IC50 of anticancer drug alone): 69.8 ± 4.64 µM; IC50 (HEK293/ABCB1 cells): 31.2 ± 5.41 µM

Q: What does the source list for `CC(=O)O[C@H]1C(=O)[C@@]2(C)[C@H]([C@H](OC(=O)c3ccccc3)[C@]3(O)C[C@H](OC(=O)[C@H](O)[C@@H](NC(=O)c4ccccc4)c4ccccc4)C(C)=C1C3(C)C)[C@]1(OC(C)=O)CO[C@@H]1C[C@@H]2O` [Paclitaxel, paclitaxel]?
A: IC50 (KB-3-1 cells [1]; Homo sapiens): 0.002 ± 0.0007 µM; IC50 (HEK293/pcDNA3.1 cells; Homo sapiens): 1.45 ± 0.121 µM; IC50 (HEK293/ABCB1 cells): 30.9 ± 4.67 µM

Q: What does the source list for `CC(=O)O[C@H]1C(=O)[C@@]2(C)[C@H]([C@H](OC(=O)c3ccccc3)[C@]3(O)C[C@H](OC(=O)[C@H](O)[C@@H](NC(=O)c4ccccc4)c4ccccc4)C(C)=C1C3(C)C)[C@]1(OC(C)=O)CO[C@@H]1C[C@@H]2O` [[^3H]-paclitaxel]?
A: level of [3H]-paclitaxel in KB-C2 lower than in KB-3-1 (ABCB1 in KB-C2 cells [3]): approximately 100 fold; decrease of intracellular [3H]-paclitaxel (efflux) (ABCB1 in KB-C2 cells [4]): about 50%

Q: For FFRKVLKLIRKIWR [HX-12C], which IC50 (KB-3-1 cells [5]) is on record?
A: 7.53 µM

Q: And the “effect on ATPase activity of ABCB1” value (ABCB1; 0 to 40 μM)?
A: stimulated ABCB1 ATPase activity; also recorded: can stimulate the ATPase activity of ABCB1 in a concentration-dependent manner

Q: What about the “maximal stimulation of ABCB1 ATPase activity” value (ABCB1; peptide 0 to 40 μM, 37°C, 20 min, vanadate-sensitive, three independent experiments) of the same molecule?
A: 4.7 fold of the basic activity
